PubChem BioAssay (NCI)
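48-hour exposure; five concentrations; linearly interpolated endpoints. TGI: total growth inhibition.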

Legend:
Test in all cases: NCI tumour cell line growth inhibition, 48 h
SK-MEL-2 melanoma = test system: SK-MEL-2 melanoma
P388/ADR leukemia = test system: P388/ADR leukemia
OVCAR-5 ovarian = test system: OVCAR-5 ovarian
OVCAR-3 ovarian = test system: OVCAR-3 ovarian
EKVX NSCLC = test system: EKVX NSCLC
LOX IMVI melanoma = test system: LOX IMVI melanoma
SNB-78 CNS = test system: SNB-78 CNS
SF-295 CNS = test system: SF-295 CNS
SW-620 colon = test system: SW-620 colon
A498 renal = test system: A498 renal
DMS 273 small cell lung = test system: DMS 273 small cell lung
SF-268 CNS = test system: SF-268 CNS
A549 NSCLC = test system: A549 NSCLC
HT29 colon = test system: HT29 colon
SNB-19 CNS = test system: SNB-19 CNS
HCT-116 colon = test system: HCT-116 colon
KM12 colon = test system: KM12 colon
UACC-257 melanoma = test system: UACC-257 melanoma
OVCAR-4 ovarian = test system: OVCAR-4 ovarian
NCI-H522 lung = test system: NCI-H522 lung
HCT-15 colon = test system: HCT-15 colon
K-562 leukemia = test system: K-562 leukemia
XF 498 CNS = test system: XF 498 CNS
HL-60(TB) leukemia = test system: HL-60(TB) leukemia
UACC-62 melanoma = test system: UACC-62 melanoma
SK-MEL-28 melanoma = test system: SK-MEL-28 melanoma
COLO 205 colon = test system: COLO 205 colon
HOP-62 NSCLC = test system: HOP-62 NSCLC
NCI-H23 lung = test system: NCI-H23 lung
NCI/ADR-RES ovarian = test system: NCI/ADR-RES ovarian
U251 CNS = test system: U251 CNS
SNB-75 CNS = test system: SNB-75 CNS
CAKI-1 renal = test system: CAKI-1 renal
HOP-92 NSCLC = test system: HOP-92 NSCLC
MCF7 breast = test system: MCF7 breast
SN12C renal = test system: SN12C renal
P388 leukemia = test system: P388 leukemia
DLD-1 colon = test system: DLD-1 colon
SK-OV-3 ovarian = test system: SK-OV-3 ovarian
KM20L2 colon = test system: KM20L2 colon
MALME-3M melanoma = test system: MALME-3M melanoma
HOP-18 NSCLC = test system: HOP-18 NSCLC
SF-539 CNS = test system: SF-539 CNS
SN12K1 renal = test system: SN12K1 renal
IGROV1 ovarian = test system: IGROV1 ovarian
NCI-H460 lung = test system: NCI-H460 lung
SK-MEL-5 melanoma = test system: SK-MEL-5 melanoma
NCI-H226 lung = test system: NCI-H226 lung
DMS 114 small cell lung = test system: DMS 114 small cell lung
CCRF-CEM leukemia = test system: CCRF-CEM leukemia
M19-MEL melanoma = test system: M19-MEL melanoma
UO-31 renal = test system: UO-31 renal
OVCAR-8 ovarian = test system: OVCAR-8 ovarian
HCC-2998 colon = test system: HCC-2998 colon
RXF 393 renal = test system: RXF 393 renal

`CC(C)(C)c1ccc2c(c1)OP1(Oc3cccc4cccnc34)(O2)Oc2ccc(C(C)(C)C)cc2O1` showed a TGI (SK-MEL-2 melanoma) of 43.8 µM, a TGI (P388/ADR leukemia) of 4.69 µM and a TGI (OVCAR-5 ovarian) of 32 µM. For the same compound, the TGI (OVCAR-3 ovarian) was 6.44 µM, the TGI (EKVX NSCLC) was 35.9 µM and the TGI (LOX IMVI melanoma) was 17.7 µM. The TGI (SNB-78 CNS) was > 100 µM, the TGI (SF-295 CNS) was 42.6 µM and the TGI (SW-620 colon) was > 31.8 µM. It also gave a TGI (A498 renal) of 34.9 µM, a TGI (DMS 273 small cell lung) of 13.8 µM and a TGI (SF-268 CNS) of 26.7 µM. For the same compound, the TGI (A549 NSCLC) was > 54.7 µM, the TGI (HT29 colon) was 15.4 µM and the TGI (SNB-19 CNS) was > 100 µM. For the same compound, the TGI (HCT-116 colon) was 15.2 µM, the TGI (KM12 colon) was 21.3 µM and the TGI (UACC-257 melanoma) was > 30.4 µM. For the same compound, the TGI (OVCAR-4 ovarian) was 6.14 µM, the TGI (NCI-H522 lung) was 26.4 µM and the TGI (HCT-15 colon) was 15.3 µM. It also gave a TGI (K-562 leukemia) of 37.5 µM, a TGI (XF 498 CNS) of 7.56 µM and a TGI (HL-60(TB) leukemia) of 6.82 µM. For the same compound, the TGI (UACC-62 melanoma) was 12.2 µM, the TGI (SK-MEL-28 melanoma) was > 84.9 µM and the TGI (COLO 205 colon) was 9.02 µM. For the same compound, the TGI (HOP-62 NSCLC) was 62.1 µM, the TGI (NCI-H23 lung) was 10.2 µM and the TGI (NCI/ADR-RES ovarian) was 11.1 µM. The TGI (U251 CNS) was 43.8 µM, the TGI (SNB-75 CNS) was > 54.2 µM and the TGI (CAKI-1 renal) was > 23.5 µM. The TGI (HOP-92 NSCLC) was > 100 µM, the TGI (MCF7 breast) was 5.48 µM and the TGI (SN12C renal) was 52.9 µM. For the same compound, the TGI (P388 leukemia) was 2.64 µM, the TGI (DLD-1 colon) was 21.2 µM and the TGI (SK-OV-3 ovarian) was > 92.1 µM. For the same compound, the TGI (KM20L2 colon) was 15.4 µM, the TGI (MALME-3M melanoma) was 51.3 µM and the TGI (HOP-18 NSCLC) was > 60.5 µM. The TGI (SF-539 CNS) was 30.2 µM, the TGI (SN12K1 renal) was 14.2 µM and the TGI (IGROV1 ovarian) was 18.3 µM. It also gave a TGI (NCI-H460 lung) of 12.7 µM, a TGI (SK-MEL-5 melanoma) of 13.7 µM and a TGI (NCI-H226 lung) of 30.9 µM. The TGI (DMS 114 small cell lung) was 5.97 µM, the TGI (CCRF-CEM leukemia) was > 25.2 µM and the TGI (M19-MEL melanoma) was 33.5 µM. For the same compound, the TGI (UO-31 renal) was 13.4 µM, the TGI (OVCAR-8 ovarian) was > 100 µM and the TGI (HCC-2998 colon) was 24.1 µM. It also gave a TGI (RXF 393 renal) of 16.9 µM.
